“Also recorded” adds a separate entry of the source.
Columns and labels:
glucocorticoid receptor [1] = target: T1, glucocorticoid receptor (Homo sapiens, UniProt P04150); assay: Selectivity for transrepression over transactivation in vitro; assay type: cell-based; parameters: expressed in transfected cells; host or cells: COS 7 (African green monkey kidney, deficient in endogenous GR)
T1 sequence (P04150 1-777): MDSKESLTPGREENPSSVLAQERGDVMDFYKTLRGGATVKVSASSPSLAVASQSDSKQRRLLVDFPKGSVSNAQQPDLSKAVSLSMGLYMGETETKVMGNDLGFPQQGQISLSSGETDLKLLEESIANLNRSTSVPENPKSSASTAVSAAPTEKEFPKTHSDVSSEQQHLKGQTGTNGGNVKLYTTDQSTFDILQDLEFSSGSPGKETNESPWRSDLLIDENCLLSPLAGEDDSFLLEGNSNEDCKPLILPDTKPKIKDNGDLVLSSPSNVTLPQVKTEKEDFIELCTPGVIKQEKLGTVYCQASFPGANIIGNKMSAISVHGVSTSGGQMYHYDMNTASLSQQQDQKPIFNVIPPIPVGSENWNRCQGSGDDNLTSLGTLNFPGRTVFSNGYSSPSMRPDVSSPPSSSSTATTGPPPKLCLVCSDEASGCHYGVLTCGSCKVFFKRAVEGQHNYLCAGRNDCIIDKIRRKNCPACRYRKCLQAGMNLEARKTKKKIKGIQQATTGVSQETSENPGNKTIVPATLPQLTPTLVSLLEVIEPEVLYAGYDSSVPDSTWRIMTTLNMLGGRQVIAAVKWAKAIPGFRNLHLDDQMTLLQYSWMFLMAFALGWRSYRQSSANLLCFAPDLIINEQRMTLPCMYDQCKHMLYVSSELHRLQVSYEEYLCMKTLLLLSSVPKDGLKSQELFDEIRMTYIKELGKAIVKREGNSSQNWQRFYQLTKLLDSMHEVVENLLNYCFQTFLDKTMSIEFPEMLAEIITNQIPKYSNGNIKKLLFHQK

glucocorticoid receptor [2] = target: T1, glucocorticoid receptor; assay: Ligand binding competition assay, 3H Dexamethasone; parameters: Human HeLa 53 cells; endogenous in cells; conditions: Human HeLa 53 cells, 2 hours @25° C.
Procedure: Binding of compound G to the glucocorticoid receptor was investigated using a standard competition assay. The conditions were as follows:
IC50 values were determined by a non-linear, least squares regression The KI values were calculated using the equation of Cheng and Prusoff using the observed IC50 of the test compound, the concentration of radioligand employed in the assay, and the historic values for the Kd for the ligand. The Hill coefficient (nH), defined as the slope of the competitive binding curve, was calculated.

[3] = tested on: other members of the steroid receptor super family; assay: Binding to other members of the steroid receptor super family
progesterone receptor = target: T2, progesterone receptor (Homo sapiens, UniProt P06401); assay: Classic receptor binding assay, progesterone receptor (data not shown)
T2 sequence (P06401 1-933): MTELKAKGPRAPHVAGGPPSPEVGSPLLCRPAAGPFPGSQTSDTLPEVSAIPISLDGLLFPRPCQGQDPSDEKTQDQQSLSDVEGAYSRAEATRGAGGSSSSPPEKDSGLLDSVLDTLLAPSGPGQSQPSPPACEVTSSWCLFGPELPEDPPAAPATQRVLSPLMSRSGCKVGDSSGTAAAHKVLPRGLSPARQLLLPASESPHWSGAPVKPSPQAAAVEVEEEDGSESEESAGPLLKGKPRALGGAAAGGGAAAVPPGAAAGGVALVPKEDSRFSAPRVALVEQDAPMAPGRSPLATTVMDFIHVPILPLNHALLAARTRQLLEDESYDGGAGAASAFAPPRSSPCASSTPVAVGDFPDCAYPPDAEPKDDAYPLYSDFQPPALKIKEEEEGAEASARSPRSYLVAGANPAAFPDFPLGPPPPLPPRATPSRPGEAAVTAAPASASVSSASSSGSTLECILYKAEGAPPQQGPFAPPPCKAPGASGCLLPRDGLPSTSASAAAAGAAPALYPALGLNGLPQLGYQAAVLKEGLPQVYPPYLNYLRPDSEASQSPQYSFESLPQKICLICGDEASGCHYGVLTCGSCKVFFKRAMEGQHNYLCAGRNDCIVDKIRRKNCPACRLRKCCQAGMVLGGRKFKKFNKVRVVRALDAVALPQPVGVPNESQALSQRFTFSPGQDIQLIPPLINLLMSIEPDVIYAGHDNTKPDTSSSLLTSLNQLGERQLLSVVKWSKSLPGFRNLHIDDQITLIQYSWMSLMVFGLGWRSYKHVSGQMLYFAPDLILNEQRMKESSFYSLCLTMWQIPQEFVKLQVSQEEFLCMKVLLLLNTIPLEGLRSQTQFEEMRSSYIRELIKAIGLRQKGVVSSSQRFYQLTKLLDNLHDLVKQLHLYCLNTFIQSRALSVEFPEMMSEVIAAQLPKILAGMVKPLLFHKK

glucocorticoid receptor [4] = target: T1, glucocorticoid receptor; assay: Type II antagonist activity assay: competition of dexamethasone transactivation; assay type: cell-based; parameters: expressed in transfected cells; host or cells: COS 7 (African green monkey kidney, deficient in endogenous GR); conditions: COS7 cells stimulated with 1 nM dexamethasone
Procedure: A type II antagonist should be able to compete agonist activity. As an antagonist has no ability to transactivate, competition can be measured by inhibition of an agonist in a transactivation assay.
As with the standard transactivation assay previously described, the GR was artificially expressed in a cell line lacking endogenous GR and a GRE “driving” a luciferase reporter gene was used to measure ligand dependent activation. COS7 cells were transfected with 1 μg pcDNA3-GR and 3 μg AH3-Luc per 10 cm tissue culture dish. The cells were plated out in to 24 well plates after transfection and the steroids were added immediately. […] Certain steroids from FIG. 2A were added at the same concentration to all sample wells. After 18 hour incubation the cells were lysed and a luciferase assay was performed.

Compound	competition of dexamethasone transactivation (glucocorticoid receptor [4])	further results
CCCNC(=O)C1(O)C(C)CC2C3CCC4=CC(=O)C=CC4(C)C3(F)C(O)CC21C (centres unmarked) [Compound G]	–	selectivity for transrepression over transactivation (glucocorticoid receptor [1]): approximately 1000 fold; binding to the glucocorticoid receptor, competition with 3H Dexamethasone (glucocorticoid receptor [2]): bound to the glucocoticoid receptor; also recorded: right shifted when compared to dexamethasone; also recorded: less potent ligand than dexamethasone; binding to other members of the steroid receptor super family [3]: not to bind to other members of the steroid receptor super family; binding to the progesterone receptor (progesterone receptor): not to bind to the progesterone receptor
Cc1ccc(NC(=O)C2(O)C(C)CC3C4CCC5=CC(=O)C=CC5(C)C4(F)C(O)CC32C)cc1 (centres unmarked) [Compound O]	failed to repress dexamethasone transactivation	–
CC1CC2C3CCC4=CC(=O)C=CC4(C)C3(F)C(O)CC2(C)C1(O)C(=O)NCCCO (centres unmarked) [L]	failed to repress dexamethasone transactivation	–
CC1CC2C3CCC4=CC(=O)C=CC4(C)C3(F)C(O)CC2(C)C1(O)C(=O)NCCC(=O)O (centres unmarked) [Q]	failed to repress dexamethasone transactivation	–
CCCOC(=O)C1(O)C(C)CC2C3CCC4=CC(=O)C=CC4(C)C3(F)C(O)CC21C (centres unmarked) [R]	failed to repress dexamethasone transactivation	–

Source: patent US7763596B2, “Selective glucocorticoid receptor agonists” (The University of Manchester, priority 2000, dated 2010)
